Test results published in PubChem BioAssay AID248 (DTP/NCI, 2004).
Toxic doses and inconclusive results are not listed.

System: L1210 leukemia ip in BDF1 mice, survival T/C
Test: NCI In Vivo Anticancer Drug Screen. Data for tumor model L1210 Leukemia (intraperitoneal) in B6D2F1 (BDF1) mice
Conditions: higher = longer survival
Outline: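 Transplantable tumor model; survival measured in treated vs vehicle control mice. Value = treated/control.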

[1] = endpoint: mean survival time, dose: 100.0 mg/kg/injection, schedule: Q01DX009 (ip), vehicle: saline
[2] = endpoint: mean survival time, dose: 100.0 mg/kg/injection, schedule: Q04DX003 (ip), vehicle: saline
[3] = endpoint: mean survival time, dose: 200.0 mg/kg/injection, schedule: Q01DX009 (ip), vehicle: saline
[4] = endpoint: mean survival time, dose: 200.0 mg/kg/injection, schedule: Q04DX003 (ip), vehicle: saline
[5] = endpoint: mean survival time, dose: 400.0 mg/kg/injection, schedule: Q04DX003 (ip), vehicle: saline
[6] = endpoint: mean survival time, dose: 100.0 mg/kg/injection, schedule: Q01DX001 (ip), vehicle: saline
[7] = endpoint: mean survival time, dose: 200.0 mg/kg/injection, schedule: Q01DX001 (ip), vehicle: saline
[8] = endpoint: mean survival time, dose: 400.0 mg/kg/injection, schedule: Q01DX001 (ip), vehicle: saline
[9] = endpoint: mean survival time, dose: 100.0 mg/kg/injection, schedule: Q01DX009 (ip), vehicle: saline with Tween-80
[10] = endpoint: mean survival time, dose: 100.0 mg/kg/injection, schedule: Q04DX003 (ip), vehicle: saline with Tween-80
[11] = endpoint: mean survival time, dose: 200.0 mg/kg/injection, schedule: Q01DX009 (ip), vehicle: saline with Tween-80
[12] = endpoint: mean survival time, dose: 200.0 mg/kg/injection, schedule: Q04DX003 (ip), vehicle: saline with Tween-80
[13] = endpoint: mean survival time, dose: 400.0 mg/kg/injection, schedule: Q01DX009 (ip), vehicle: saline with Tween-80
[14] = endpoint: mean survival time, dose: 100.0 mg/kg/injection, schedule: Q04DX003 (ip), vehicle: Klucel (hydroxypropylcellulose) (HPC)
[15] = endpoint: mean survival time, dose: 200.0 mg/kg/injection, schedule: Q04DX003 (ip), vehicle: Klucel (hydroxypropylcellulose) (HPC)

COc1ccc(C(=NO)c2ccc(OC)cc2)cc1
T/C [1]: 102 % of control | T/C [2]: 104 % of control | T/C [3]: 102 % of control | T/C [4]: 93 % of control | T/C (endpoint: mean survival time, dose: 400.0 mg/kg/injection, schedule: Q01DX009 (ip), vehicle: saline): 107 % of control | T/C [5]: 95 % of control

Cc1cc(=O)n2c(n1)Nc1ccccc1C2
T/C [6]: 87 % of control | T/C [7]: 93 % of control | T/C [8]: 87 % of control

c1ccc2c(c1)C1CCC2c2ccccc21
T/C [9]: 106 % of control | T/C [10]: 95 % of control | T/C [11]: 102 % of control | T/C [12]: 98 % of control | T/C [13]: 97 % of control | T/C (endpoint: mean survival time, dose: 400.0 mg/kg/injection, schedule: Q04DX003 (ip), vehicle: saline with Tween-80): 92 % of control

NC(Cc1cc(I)c(Oc2cc(I)c(O)c(I)c2)c(I)c1)C(=O)O (stereo not drawn)
T/C (endpoint: median survival time, dose: 0.63 mg/kg/injection, schedule: Q01DX009 (ip), vehicle: saline): 98 % of control | T/C (endpoint: median survival time, dose: 2.5 mg/kg/injection, schedule: Q01DX009 (ip), vehicle: saline): 92 % of control | T/C (endpoint: median survival time, dose: 10.0 mg/kg/injection, schedule: Q01DX009 (ip), vehicle: saline): 88 % of control | T/C (endpoint: median survival time, dose: 40.0 mg/kg/injection, schedule: Q01DX009 (ip), vehicle: saline): 93 % of control

O=[N+]([O-])c1ccc(/C=C/c2ncc[nH]2)o1
T/C [14]: 92 % of control | T/C [15]: 92 % of control

OC(c1nc2ccc(Cl)cc2[nH]1)C(O)C(O)C(O)c1nc2ccc(Cl)cc2[nH]1 (stereo not drawn)
T/C (endpoint: mean survival time, dose: 100.0 mg/kg/injection, schedule: Q01DX001 (ip), vehicle: carboxymethylcellulose (CMC)): 90 % of control | T/C (endpoint: mean survival time, dose: 200.0 mg/kg/injection, schedule: Q01DX001 (ip), vehicle: carboxymethylcellulose (CMC)): 101 % of control | T/C (endpoint: mean survival time, dose: 400.0 mg/kg/injection, schedule: Q01DX001 (ip), vehicle: carboxymethylcellulose (CMC)): 103 % of control

Nc1nc(O)c(NC(=O)Nc2ccccc2)c(=O)[nH]1
T/C (endpoint: mean survival time, dose: 100.0 mg/kg/injection, schedule: Q04DX003 (ip), vehicle: gum acacia): 102 % of control | T/C (endpoint: mean survival time, dose: 200.0 mg/kg/injection, schedule: Q04DX003 (ip), vehicle: gum acacia): 100 % of control | T/C (endpoint: mean survival time, dose: 400.0 mg/kg/injection, schedule: Q04DX003 (ip), vehicle: gum acacia): 105 % of control

CC(O)C(=O)OCCOc1ccc(Cl)cc1Cl (stereo not drawn)
T/C (endpoint: mean survival time, dose: 50.0 mg/kg/injection, schedule: Q01DX009 (ip), vehicle: saline): 670 % of control | T/C [1]: 91 % of control | T/C [2]: 100 % of control | T/C [3]: 95 % of control | T/C [4]: 100 % of control | T/C [5]: 97 % of control

NC(CSCCc1ccc2ccccc2n1)C(=O)O (stereo not drawn)
T/C [14]: 100 % of control | T/C [15]: 95 % of control | T/C (endpoint: mean survival time, dose: 400.0 mg/kg/injection, schedule: Q04DX003 (ip), vehicle: Klucel (hydroxypropylcellulose) (HPC)): 99 % of control

CC[N+](C)(C)CCOC(=O)C1C2CC3OC(=O)C1C3C2 (stereo not drawn)
T/C [2]: 97 % of control | T/C [4]: 101 % of control

O=C(CCCC(=O)N/N=C/c1c(Cl)cccc1Cl)N/N=C\c1c(Cl)cccc1Cl
T/C (endpoint: mean survival time, dose: 50.0 mg/kg/injection, schedule: Q01DX001 (ip), vehicle: saline): 100 % of control | T/C [6]: 106 % of control | T/C [7]: 100 % of control | T/C [8]: 103 % of control

CC(=O)c1ccc(N=C2C=CC(=O)O2)cc1
T/C [9]: 104 % of control | T/C [11]: 105 % of control | T/C [13]: 100 % of control

CCCC(C)(O)C#CC(C)(O)CCC (stereo not drawn)
T/C (endpoint: mean survival time, dose: 50.0 mg/kg/injection, schedule: Q01DX009 (ip), vehicle: saline with Tween-80): 97 % of control | T/C [9]: 95 % of control | T/C [10]: 100 % of control | T/C [11]: 97 % of control | T/C [12]: 95 % of control

COc1cc([N+](=O)[O-])cc(OC)c1OC
T/C (endpoint: mean survival time, dose: 100.0 mg/kg/injection, schedule: Q01DX001 (ip), vehicle: Klucel (hydroxypropylcellulose) (HPC)): 95 % of control | T/C (endpoint: mean survival time, dose: 200.0 mg/kg/injection, schedule: Q01DX001 (ip), vehicle: Klucel (hydroxypropylcellulose) (HPC)): 92 % of control | T/C (endpoint: mean survival time, dose: 400.0 mg/kg/injection, schedule: Q01DX001 (ip), vehicle: Klucel (hydroxypropylcellulose) (HPC)): 97 % of control
